Experiments:
blackgrass = experiment: Test B postemergence herbicide test; assay type: in vivo, Alopecurus myosuroides; conditions: postemergence
In short: (§1)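 Treated at 2-leaf (paddy) or 1–4-leaf, 2–18 cm (postemergence); greenhouse 13–15 d; visual score vs control, 0 none to 100 complete control; dash = not tested.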

ducksalad = experiment: Test B flooded paddy test; assay type: in vivo, Heteranthera limosa; conditions: 1000 g ai/ha, scale 0 to 100 (0 no effect, 100 complete control)
In short: as §1

cocklebur = experiment: Test B pre-/postemergence herbicide test; assay type: in vivo, Xanthium strumarium; conditions: for Plant response rating (0 to 100 scale), Cocklebur: 0 is no effect; for Cocklebur plant response rating: postemergence
In short: (§2)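 Herbicidal effect was judged by eye on a 0–100 scale after plants stood 13 to 15 days in the greenhouse following pre- or postemergence treatment with surfactant-containing formulations.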

velvetleaf = experiment: Test B pre-/postemergence herbicide test; assay type: in vivo, Abutilon theophrasti; conditions: for Plant response rating (0 to 100 scale), Velvetleaf: 0 is no effect, preemergence; for Velvetleaf plant response rating: postemergence
In short: (§3)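 Response was scored visually 13 to 15 days after treatment against untreated greenhouse controls, 0 meaning no effect and 100 complete control. Formulations (solvent mixture plus surfactant) went onto soil after planting, onto foliage of 1- to 4-leaf plants, and onto 2-leaf plants in a flooded paddy set including rice and barnyardgrass.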

[1] = system: small flower umbrella sedge; experiment: Test B flooded paddy test; assay type: in vivo, Cyperus difformis; conditions: 1000 g ai/ha, scale 0 to 100 (0 no effect, 100 complete control)
In short: as §1

lambsquarters = experiment: Test B pre-/postemergence herbicide test; assay type: in vivo, Chenopodium album; conditions: for Plant response rating (0 to 100 scale), Lambsquarters: 0 is no effect; for Lambsquarters plant response rating: postemergence
In short: as §3

morningglory = experiment: Test B pre-/postemergence herbicide test; assay type: in vivo, Ipomoea coccinea; conditions: for Plant response rating (0 to 100 scale), Morningglory: 0 is no effect, 100 is complete control; for Morningglory plant response rating: postemergence
In short: as §2

wheat = experiment: Test B postemergence herbicide test; assay type: in vivo, Triticum aestivum; design: key to Wheat plant response rating: 0 = no effect, 100 = complete control; conditions: postemergence
In short: (§4)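 Visual ratings, 0 (no effect) to 100 (complete control), made versus controls after 13–15 d greenhouse. Paddy plants treated at 2-leaf stage; postemergence plants at 1- to 4-leaf stage, 2–18 cm tall.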

Surinam grass = experiment: Test B pre-/postemergence herbicide test; assay type: in vivo, Urochloa decumbens; conditions: for Plant response rating (0 to 100 scale), Surinam Grass: 0 is no effect; for Surinam Grass plant response rating: postemergence
In short: as §3

corn = experiment: Test B pre-/postemergence herbicide test; assay type: in vivo, Zea mays; conditions: for Plant response rating (0 to 100 scale), Corn: 0 is no effect; for Corn plant response rating: postemergence
In short: as §3

barnyardgrass [2] = experiment: Test B flooded paddy test; assay type: in vivo, Echinochloa crus-galli; conditions: 1000 g ai/ha, scale 0 to 100 (0 no effect, 100 complete control)
In short: as §1

rice = experiment: Test B flooded paddy test; assay type: in vivo, Oryza sativa; conditions: 1000 g ai/ha, scale 0 to 100 (0 no effect, 100 complete control)
In short: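 Postemergence plants were sprayed with formulated test chemicals at 2 to 18 cm height (1- to 4-leaf stage); paddy species were grown to the 2-leaf stage. After 13 to 15 days in a greenhouse, injury was rated visually against untreated controls on a 0–100 scale (0 = no effect, 100 = complete control).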

wild oat = experiment: Test B postemergence herbicide test; assay type: in vivo, Avena fatua; conditions: postemergence
In short: as §4

pigweed = experiment: Test B pre-/postemergence herbicide test; assay type: in vivo, Amaranthus retroflexus; conditions: for Plant response rating (0 to 100 scale), Pigweed: 0 is no effect; for Pigweed plant response rating: postemergence
In short: as §3

barnyardgrass [3] = experiment: Test B pre-/postemergence herbicide test; assay type: in vivo, Echinochloa crus-galli; conditions: for Plant response rating (0 to 100 scale), Barnyardgrass: 0 is no effect; for Barnyardgrass plant response rating: postemergence
In short: as §2

large crabgrass = experiment: Test B pre-/postemergence herbicide test; assay type: in vivo, Digitaria sanguinalis; conditions: for Plant response rating (0 to 100 scale), Crabgrass, Large: 0 is no effect; for Crabgrass, Large plant response rating: postemergence
In short: as §3

giant foxtail = experiment: Test B pre-/postemergence herbicide test; assay type: in vivo, Setaria faberi; conditions: for Plant response rating (0 to 100 scale), Foxtail, Giant: 0 is no effect; for Foxtail, Giant plant response rating: postemergence
In short: as §3

[4] = 125 g ai/ha, visual rating, scale 0 (no effect) to 100 (complete control)
[5] = 125 g ai/ha, 100 is complete control, preemergence
[6] = 125 g ai/ha, 100 is complete control
[7] = 500 g ai/ha, scale 0 to 100, 0 is no effect, 100 is complete control
[8] = 500 g ai/ha, visual rating, 0 = no effect, 100 = complete control, preemergence

Structure (SMILES): CCOC(=O)c1ccc(F)c(NC(=S)c2cc(C(C)(C)C)nn2CC)c1 [Compound 346]
- Blackgrass plant response rating (blackgrass; [4]): 40
- Blackgrass plant response rating (blackgrass; 31 g ai/ha, scale 0 to 100): 30
- Ducksalad plant response rating (ducksalad): 60
- Plant response rating (0 to 100 scale), Cocklebur (cocklebur; [5]): 0
- Cocklebur plant response rating (cocklebur; [4]): 30
- Cocklebur plant response rating (cocklebur; 31 g ai/ha, scale 0 to 100): 10
- Plant response rating (0 to 100 scale), Velvetleaf (velvetleaf; [6]): 0
- Velvetleaf plant response rating (velvetleaf; [4]): 10
- Velvetleaf plant response rating (velvetleaf; 31 g ai/ha, scale 0 to 100): 0
- Sedge, Umbrella plant response rating [1]: 80
- Plant response rating (0 to 100 scale), Lambsquarters (lambsquarters; [5]): 0
- Lambsquarters plant response rating (lambsquarters; [4]): 30
- Lambsquarters plant response rating (lambsquarters; 31 g ai/ha, scale 0 to 100): 0
- Plant response rating (0 to 100 scale), Morningglory (morningglory; 125 g ai/ha, preemergence): 0
- Morningglory plant response rating (morningglory; [4]): 10
- Morningglory plant response rating (morningglory; 31 g ai/ha, scale 0 to 100): 0
- Wheat plant response rating (wheat; [4]): 20
- Wheat plant response rating (wheat; 31 g ai/ha, scale 0 to 100): 10
- Plant response rating (0 to 100 scale), Surinam Grass (Surinam grass; [5]): 10
- Surinam Grass plant response rating (Surinam grass; [4]): 10
- Surinam Grass plant response rating (Surinam grass; 31 g ai/ha, scale 0 to 100): 0
- Plant response rating (0 to 100 scale), Corn (corn; [5]): 0
- Corn plant response rating (corn; [4]): 0
- Corn plant response rating (corn; 31 g ai/ha, scale 0 to 100): 0
- Barnyardgrass plant response rating (barnyardgrass [2]): 40
- Rice plant response rating (rice): 40
- Oat, Wild plant response rating (wild oat; [4]): 40
- Oat, Wild plant response rating (wild oat; 31 g ai/ha, scale 0 to 100): 30
- Plant response rating (0 to 100 scale), Pigweed (pigweed; [5]): 0
- Pigweed plant response rating (pigweed; [4]): 70
- Pigweed plant response rating (pigweed; 31 g ai/ha, scale 0 to 100): 60
- Plant response rating (0 to 100 scale), Barnyardgrass (barnyardgrass [3]; [5]): 0
- Barnyardgrass plant response rating (barnyardgrass [3]; [4]): 20
- Barnyardgrass plant response rating (barnyardgrass [3]; 31 g ai/ha, scale 0 to 100): 0
- Plant response rating (0 to 100 scale), Crabgrass, Large (large crabgrass; [5]): 60
- Crabgrass, Large plant response rating (large crabgrass; [4]): 0
- Crabgrass, Large plant response rating (large crabgrass; 31 g ai/ha, scale 0 to 100): 0
- Plant response rating (0 to 100 scale), Foxtail, Giant (giant foxtail; [5]): 50
- Foxtail, Giant plant response rating (giant foxtail; [4]): 20
- Foxtail, Giant plant response rating (giant foxtail; 31 g ai/ha, scale 0 to 100): 0

Structure (SMILES): CCn1nc(C(C)(C)C)cc1C(=O)Nc1cc(OCCF)ccc1F [Compound 350]
- Blackgrass plant response rating (blackgrass; [4]): 0
- Blackgrass plant response rating (blackgrass; [7]): 0
- Ducksalad plant response rating (ducksalad): 0
- Plant response rating (0 to 100 scale), Cocklebur (cocklebur; [5]): 0
- Cocklebur plant response rating (cocklebur; [4]): 0
- Plant response rating, Cocklebur (cocklebur; [8]): 0
- Cocklebur plant response rating (cocklebur; [7]): 20
- Plant response rating (0 to 100 scale), Velvetleaf (velvetleaf; [6]): 0
- Velvetleaf plant response rating (velvetleaf; [4]): 0
- Velvetleaf plant response rating (velvetleaf; [7]): 10
- Sedge, Umbrella plant response rating [1]: 0
- Plant response rating (0 to 100 scale), Lambsquarters (lambsquarters; [5]): 0
- Lambsquarters plant response rating (lambsquarters; [4]): 0
- Plant response rating, Lambsquarters (lambsquarters; [8]): 0
- Lambsquarters plant response rating (lambsquarters; [7]): 10
- Plant response rating (0 to 100 scale), Morningglory (morningglory; 125 g ai/ha, preemergence): 0
- Morningglory plant response rating (morningglory; [4]): 0
- Plant response rating, Morningglory (morningglory; [8]): 0
- Wheat plant response rating (wheat; [4]): 0
- Wheat plant response rating (wheat; [7]): 0
- Plant response rating (0 to 100 scale), Surinam Grass (Surinam grass; [5]): 0
- Surinam Grass plant response rating (Surinam grass; [4]): 0
- Plant response rating, Surinam Grass (Surinam grass; [8]): 0
- Surinam Grass plant response rating (Surinam grass; [7]): 10
- Plant response rating (0 to 100 scale), Corn (corn; [5]): 0
- Corn plant response rating (corn; [4]): 0
- Plant response rating, Corn (corn; [8]): 0
- Corn plant response rating (corn; [7]): 20
- Barnyardgrass plant response rating (barnyardgrass [2]): 0
- Rice plant response rating (rice): 0
- Oat, Wild plant response rating (wild oat; [4]): 0
- Oat, Wild plant response rating (wild oat; [7]): 0
- Plant response rating (0 to 100 scale), Pigweed (pigweed; [5]): 0
- Pigweed plant response rating (pigweed; [4]): 0
- Plant response rating, Pigweed (pigweed; [8]): 0
- Pigweed plant response rating (pigweed; [7]): 60
- Plant response rating (0 to 100 scale), Barnyardgrass (barnyardgrass [3]; [5]): 0
- Barnyardgrass plant response rating (barnyardgrass [3]; [4]): 0
- Plant response rating, Barnyardgrass (barnyardgrass [3]; [8]): 0
- Barnyardgrass plant response rating (barnyardgrass [3]; [7]): 0
- Plant response rating (0 to 100 scale), Crabgrass, Large (large crabgrass; [5]): 0
- Crabgrass, Large plant response rating (large crabgrass; [4]): 0
- Plant response rating, Crabgrass, Large (large crabgrass; [8]): 0
- Crabgrass, Large plant response rating (large crabgrass; [7]): 10
- Plant response rating (0 to 100 scale), Foxtail, Giant (giant foxtail; [5]): 0
- Foxtail, Giant plant response rating (giant foxtail; [4]): 0
- Plant response rating, Foxtail, Giant (giant foxtail; [8]): 0
- Foxtail, Giant plant response rating (giant foxtail; [7]): 30

— patent US20060069132A1, “Azolecarboxamide herbicides” (priority 2004, published 2006)
